Each structure is given as a SMILES string.

The subject of assay [1] is human naïve PSCs. The assay can be described thus: RT-PCR analysis for naïve pluripotency markers. Type of assay: cell-based. The note with it: ENHSM with and without P38i/JNKi, normalized to ACTIN, primed set as 1. An excerpt:
(§1) FIGS. 2A-I. Optimizations for enhanced human naive pluripotency conditions. A. W3G4 METTL3 TET-OFF cells were maintained in the presence of DOX for up to 4 passages in different conditions and stained for OCT4 to quantify percentage of cells that retained their pluripotency. […] B. Quantification of ΔPE-OCT4-GFP knock in naïve pluripotency reporter, in variety of primed (red) and naïve conditions (blue). Mean fluorescence intensity values (MFI) are indicated. […] C. Quantification of ΔPE-OCT4-GFP knock in naïve pluripotency reporter, in optimized naïve conditions and various concentrations of GSK3 inhibitor that leads to WNT activation (CHIR99021 is used as GSK3 inhibitor and is abbreviated as CHIR). […] D. Phase images showing how supplementation of 0.2% Geltrex (Life Technologies) in the growth media and SRCi additively enhance domed like morphology of human naïve PSCs in ENHSM conditions optimized herein. E. RT-PCR analysis for naïve pluripotency markers in ENHSM conditions with and without P38i/JNKi (BIRB0796). Values were normalized to ACTIN and values in Primed conditions were set as 1. […] F. W3G4 METTL3 TET-OFF cells were maintained in the presence of DOX for up to 4 passages in the optimized ENHSM conditions but without TNKi, in order to see if other molecules can substitute for TNKi after all optimizations were applies (e.g. adding of Geltrex, concentration optimization). […]

The test system of assay [2] is WIBR3 hESC line carrying ΔPE-OCT4-GFP reporter. The assay can be described thus: ΔPE-OCT4-GFP knock in naïve pluripotency reporter quantification. Type of assay: cell-based, human.
Source text: as §1

The subject of assay [3] is human naïve PSCs. The assay can be described thus: Pluripotency maintenance of naïve cells in ENHSM supplemented with CHIR. Type of assay: cell-based. The note with it: ENHSM plus CHIR; TGFB inhibition, depleted DNA and RNA methylation or no L-Glutamine. An excerpt:
The present inventors next aimed to define the signaling pathway downstream of Tankyrase inhibition facilitating human naïve PSCs stabilization. Bcat-KO ESCs had higher levels of Oct4-GFP in ENHSM condition, and upon removal of XAV939 GFP level was not decreased in KO, but in WT ESCs. A similar trend was shown in RT-PCR analysis. Supplementing naïve cells with WNT stimulator compromised delta-PE-OCT4-GFP levels, compromised their domed shape like morphology and their transcriptional profile. Using a tamoxifen induced Beta-Catenin-ERT transgene, the present inventors noted that delta-PE-OCT4-GFP signal and domed morphology were compromised upon tamoxifen stimulation. […] Similarly, while KO of TCF3 boosts mouse naïve pluripotency and alleviates the need for WNT stimulation, TCF3 KO ESCs still required WNTi and/or SRCi to maintain their naïve identity in humans. […] Collectively, these findings clearly establish WNT as a priming agent for human, but not mouse, naïve pluripotency and establish that KO of beta-catenin can substitute for Tankyrase inhibition.

The next assay relates to primed human PSCs. The assay can be described thus: Single cell cloning efficiency. The note with it: primed cells, ROCK inhibitor used. Type of assay: cell-based.
Another assay concerns the target T1, PKCζ (Homo sapiens, UniProt Q05513).
T1 sequence (Q05513 1-592): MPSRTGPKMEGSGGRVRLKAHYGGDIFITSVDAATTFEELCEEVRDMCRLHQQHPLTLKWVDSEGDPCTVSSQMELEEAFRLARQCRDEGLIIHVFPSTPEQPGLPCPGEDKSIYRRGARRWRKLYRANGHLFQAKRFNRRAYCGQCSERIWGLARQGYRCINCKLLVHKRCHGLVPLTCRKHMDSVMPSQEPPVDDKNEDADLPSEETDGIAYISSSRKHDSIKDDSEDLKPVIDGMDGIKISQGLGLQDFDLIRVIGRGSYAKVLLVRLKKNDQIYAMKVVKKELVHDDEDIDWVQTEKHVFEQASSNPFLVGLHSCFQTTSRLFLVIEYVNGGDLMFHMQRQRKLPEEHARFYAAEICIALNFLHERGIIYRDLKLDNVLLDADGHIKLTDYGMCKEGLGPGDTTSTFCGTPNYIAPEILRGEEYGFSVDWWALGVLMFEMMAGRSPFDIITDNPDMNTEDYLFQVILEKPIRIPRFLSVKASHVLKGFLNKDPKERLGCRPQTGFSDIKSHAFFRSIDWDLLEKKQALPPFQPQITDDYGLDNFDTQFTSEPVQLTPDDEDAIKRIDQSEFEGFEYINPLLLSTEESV
The note with it: cited from earlier work.

The subject of assay [4] is PKCγ. The note with it: fourth value of the list; read-out: IC50 PKCγ (second mention); cited from earlier work.
The next assay concerns the target T2, PKCμ (Homo sapiens, UniProt Q15139).
T2 sequence (Q15139 1-912): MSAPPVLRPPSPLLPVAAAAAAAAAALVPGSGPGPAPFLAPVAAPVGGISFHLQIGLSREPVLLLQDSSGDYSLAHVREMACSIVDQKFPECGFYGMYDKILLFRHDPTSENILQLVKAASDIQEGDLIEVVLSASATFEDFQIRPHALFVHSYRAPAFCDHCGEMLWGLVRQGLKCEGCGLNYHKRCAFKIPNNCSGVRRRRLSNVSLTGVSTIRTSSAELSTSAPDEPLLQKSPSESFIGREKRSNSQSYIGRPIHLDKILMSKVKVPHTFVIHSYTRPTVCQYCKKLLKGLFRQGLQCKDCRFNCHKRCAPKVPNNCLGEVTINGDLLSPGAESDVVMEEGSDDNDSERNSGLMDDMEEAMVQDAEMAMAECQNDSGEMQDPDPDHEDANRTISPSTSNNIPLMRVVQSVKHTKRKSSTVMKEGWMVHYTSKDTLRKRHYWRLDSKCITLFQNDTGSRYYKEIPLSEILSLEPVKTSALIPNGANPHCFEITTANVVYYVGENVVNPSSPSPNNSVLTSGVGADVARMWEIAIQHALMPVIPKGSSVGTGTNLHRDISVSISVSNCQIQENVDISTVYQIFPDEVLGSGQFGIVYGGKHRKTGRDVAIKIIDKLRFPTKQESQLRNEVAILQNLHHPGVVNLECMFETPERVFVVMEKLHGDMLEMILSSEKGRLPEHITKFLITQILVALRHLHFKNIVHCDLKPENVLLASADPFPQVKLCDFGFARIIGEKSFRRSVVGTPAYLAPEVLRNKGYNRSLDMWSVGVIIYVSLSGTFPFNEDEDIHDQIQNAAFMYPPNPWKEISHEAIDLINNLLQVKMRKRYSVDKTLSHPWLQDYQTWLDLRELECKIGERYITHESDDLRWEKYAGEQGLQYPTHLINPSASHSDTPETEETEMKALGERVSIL
The note with it: cited from earlier work.

The target of assay [5] is PKCγ (Homo sapiens, UniProt P05129). The note with it: third value of the list; cited from earlier work.
A further assay has as its target PKCβ (Homo sapiens, UniProt P05771). The note with it: cited from earlier work.
A further assay addresses PKCα (Homo sapiens, UniProt P17252). The note with it: cited from earlier work.
In assay [6] the test system is Tet-OFF-METTL3 hESCs (WIBR3, clone W3G4). The assay can be described thus: Pluripotency (OCT4+) maintenance of Tet-OFF-METTL3 hESCs in the presence of DOX. The note with it: individual small molecule supplemented to NHSM, Geltrex coated plates, no MEFs. The class given is cell-based, human. From the text:
FIGS. 1A-I Defining enhanced human naive conditions compatible with expanding METTL3 depleted PSCs. A. Strategy for generating human ESCs with TET-OFF regulated expression of METTL3 m^6A methyltransferase enzyme. B. Western blot analysis for correctly engineered human ESCs with TET-OFF METTL3 regulation, before and after DOX treatment. C. Representative images for human METTL3 TET-OFF engineered cells in different conditions with or without DOX addition. […] D. Scheme depicting strategy for conducting a screen for identifying a small molecule or cytokine additive to previously described human naïve NHSM conditions that allow maintain pluripotency in TET-OFF METTL3 human stem cells after adding DOX. E. W3G4 cells were maintained in the presence of DOX for up to 4 passages in different conditions and stained for OCT4 to quantify percentage of cells that retained their pluripotency. […] F. OCT4+ pluripotency maintenance in NHSM conditions supplemented with various TNK inhibitors and DOX to repress METTL3 expression. G. Quantification of ΔPE-OCT4-GFP knock in naïve pluripotency reporter, in variety of primed (red) and naïve conditions (blue). Mean fluorescence intensity values (MFI) are indicated. H. Quantification of ΔPE-OCT4-GFP knock in naïve pluripotency reporter in variety of conditions with various concentrations of ACTIVIN A recombinant cytokine. […] I. Representative phase contrast images in human ESCs expanded in NHSM+TNKi conditions showing their maintenance of pluripotent domed-like morphology even in the presence of FGFRi.
In order to identify culture conditions which capture human naïve PSC, the present inventors looked for agents which are capable of maintaining stem cells in a pluripotent state in the absence of defined epigenetic repressors. Human knock-in WIBR3 hESC lines with conditional inducible ablation expression of METTL3 were engineered (FIG. 1A). This was carried out by introducing an exogenous METTL3 transgene under the regulation of Tet-OFF promoter (Liao et al., 2015), followed by CRISPR/Cas9 mediated ablation of both endogenous human METTL3 alleles. Two resultant clones were validated for METTL3 expression only from the exogenous allele, which can be shut off by addition of DOX to the media (called Tet-OFF-METTL3 lines) (FIG. 1B).
The latter further support rewiring toward naïve pluripotency in NHSM conditions. […] Candidate molecules were tested for the ability to enrich NHSM conditions that allow Tet-OFF-METTL3 to be maintained on Geltrex coated plates in the presence of DOX.
NHSM conditions were supplemented with individual small molecules (FIG. 1D). […] IWR1 is a WNT inhibitor (WNTi) small molecule that stabilizes AXIN protein in the cytoplasm by inhibiting Tankyrase enzyme (abbreviated herein as TNK inhibitor—TNKi).

Chain of PKCβ (P05771 whole entry, species assumed): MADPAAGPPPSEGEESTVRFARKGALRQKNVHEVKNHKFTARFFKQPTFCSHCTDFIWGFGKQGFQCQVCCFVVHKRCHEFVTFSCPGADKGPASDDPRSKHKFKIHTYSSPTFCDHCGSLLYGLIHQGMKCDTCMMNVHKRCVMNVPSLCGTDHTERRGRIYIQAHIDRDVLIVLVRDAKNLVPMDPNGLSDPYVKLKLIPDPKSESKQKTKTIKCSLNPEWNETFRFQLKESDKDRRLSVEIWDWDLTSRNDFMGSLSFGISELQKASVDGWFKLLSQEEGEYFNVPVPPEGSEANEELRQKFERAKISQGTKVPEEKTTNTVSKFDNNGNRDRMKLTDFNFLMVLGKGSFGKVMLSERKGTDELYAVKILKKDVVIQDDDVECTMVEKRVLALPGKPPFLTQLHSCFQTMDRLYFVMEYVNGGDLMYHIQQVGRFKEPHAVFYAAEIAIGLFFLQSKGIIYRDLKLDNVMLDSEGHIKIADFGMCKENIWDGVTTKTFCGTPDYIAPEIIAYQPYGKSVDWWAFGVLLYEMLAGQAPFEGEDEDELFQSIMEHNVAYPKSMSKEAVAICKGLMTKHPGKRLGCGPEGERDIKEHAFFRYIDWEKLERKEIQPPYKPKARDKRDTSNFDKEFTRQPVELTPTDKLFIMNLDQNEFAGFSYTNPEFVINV

`Cc1ccc(-n2nc(C(C)(C)C)cc2NC(=O)Nc2ccc(OCCN3CCOCC3)c3ccccc23)cc1` [BIRB0796]: in the assay with human naïve PSCs [1], the “naïve pluripotency marker expression” value is reported as “boosts expression of naïve pluripotency markers”.

As to `Cc1c[nH]c(-c2cnc(NCCNc3ccc(C#N)cn3)nc2-c2ccc(Cl)cc2Cl)n1` [CHIR99021], the ΔPE-OCT4-GFP intensity entry in assay [2] (optimized naïve conditions, various concentrations of GSK3 inhibitor) is reported as “negatively influences human naive pluripotency”. In addition, the “ability to maintain pluripotency” value in the assay on human naïve PSCs [3] is “compromised their ability to maintain pluripotency”.

For the compound `C[C@@H](N)[C@H]1CC[C@H](C(=O)Nc2ccncc2)CC1` [Condition Y27632], the single cell cloning in the assay on primed human PSCs was 10-20%.

In the case of `COc1ccc2c(c1)c(C1=C(c3c[nH]c4ccccc34)C(=O)NC1=O)cn2CCCN(C)C` [Go6983], the half-maximal inhibitory concentration (IC50) on PKCζ is 60 nM; with PKCγ [4], 10 nM; at PKCμ it was 20000 nM; at PKCγ [5], 6 nM; on PKCβ, 7 nM; on PKCα it was 7 nM.

For the compound `O=C(Nc1cccc2cccnc12)c1ccc(N2C(=O)[C@@H]3[C@H](C2=O)[C@@H]2C=C[C@H]3C2)cc1` [IWR1], in [6], the “expansion of Tet-OFF-METTL3 on DOX” value is reported as “enabled the expansion of Tet-OFF-METTL3 on DOX with great homogeneity”. Further, the ΔPE-OCT4-GFP expression entry in assay [2] (TNKi supplemented to NHSM conditions) was “boosts expression of GFP”.

Broadly, the IC50 is the concentration that inhibits the measured activity by half.

The values are drawn from patent publication US20210363495A1, “CULTURE MEDIA FOR PLURIPOTENT STEM CELLS” (Yeda Research and Development Co. Ltd., priority 2019, published 2021).
